Measured values published in the NIST ThermoML archive (doi:10.1016/j.jct.2013.01.005).
Numbers after ± are expanded uncertainties.

Assay: activity coefficient (dimensionless); of the first substance listed, at infinite dilution; xn = mol fraction of the nth substance listed
Conditions: 101 kPa, Liquid, Chromatography, x1 = 0

With C=CCCCC [hex-1-ene] + CCCCCC[N+]1(C)CCCCC1.O=S(=O)([N-]S(=O)(=O)C(F)(F)F)C(F)(F)F the activity coefficient (308.15 K) was 4.53 ± 0.31, the activity coefficient (318.15 K) was 4.45 ± 0.3 and the activity coefficient (328.15 K) was 4.34 ± 0.3. For the same compound, the activity coefficient (338.15 K) was 4.28 ± 0.29, the activity coefficient (348.15 K) was 4.15 ± 0.28 and the activity coefficient (358.15 K) was 4.06 ± 0.28.
With C=CCCCCCCCC [1-decene] + CCCCCC[N+]1(C)CCCCC1.O=S(=O)([N-]S(=O)(=O)C(F)(F)F)C(F)(F)F the activity coefficient (308.15 K) was 12.3 ± 0.8, the activity coefficient (318.15 K) was 12.1 ± 0.8 and the activity coefficient (328.15 K) was 12 ± 0.8. For the same compound, the activity coefficient (338.15 K) was 11.8 ± 0.8, the activity coefficient (348.15 K) was 11.7 ± 0.8 and the activity coefficient (358.15 K) was 11.5 ± 0.8.
In the case of Cc1ccc(C)cc1 [1,4-dimethylbenzene] + CCCCCC[N+]1(C)CCCCC1.O=S(=O)([N-]S(=O)(=O)C(F)(F)F)C(F)(F)F, the activity coefficient (308.15 K) is reported as 1.14 ± 0.07, the activity coefficient (318.15 K) is reported as 1.17 ± 0.07 and the activity coefficient (328.15 K) is reported as 1.2 ± 0.08. For the same compound, the activity coefficient (338.15 K) was 1.24 ± 0.08, the activity coefficient (348.15 K) was 1.28 ± 0.08 and the activity coefficient (358.15 K) was 1.3 ± 0.08.
Compound CCCCCCCCC [nonane] + CCCCCC[N+]1(C)CCCCC1.O=S(=O)([N-]S(=O)(=O)C(F)(F)F)C(F)(F)F has an activity coefficient (308.15 K) of 16.9 ± 1.2, an activity coefficient (318.15 K) of 16.4 ± 1.1 and an activity coefficient (328.15 K) of 15.7 ± 1.1. It also gave an activity coefficient (338.15 K) of 15.3 ± 1, an activity coefficient (348.15 K) of 14.6 ± 1 and an activity coefficient (358.15 K) of 14.1 ± 1.
For C1CCCC1 [cyclopentane] + CCCCC[N+]1(C)CCCCC1.O=S(=O)([N-]S(=O)(=O)C(F)(F)F)C(F)(F)F, the activity coefficient (308.15 K) was 4.72 ± 0.32, the activity coefficient (318.15 K) was 4.5 ± 0.31 and the activity coefficient (328.15 K) was 4.24 ± 0.29. It also gave an activity coefficient (338.15 K) of 3.98 ± 0.27, an activity coefficient (348.15 K) of 3.82 ± 0.26 and an activity coefficient (358.15 K) of 3.72 ± 0.25.
For C=CCCCCCC [oct-1-ene] + CCCCC[N+]1(C)CCCCC1.O=S(=O)([N-]S(=O)(=O)C(F)(F)F)C(F)(F)F, the activity coefficient (308.15 K) was 9.9 ± 0.68, the activity coefficient (318.15 K) was 9.65 ± 0.66 and the activity coefficient (328.15 K) was 9.28 ± 0.63. The activity coefficient (338.15 K) was 8.94 ± 0.61, the activity coefficient (348.15 K) was 8.77 ± 0.6 and the activity coefficient (358.15 K) was 8.47 ± 0.58.
Work on CO [methanol] + CCCCC[N+]1(C)CCCCC1.O=S(=O)([N-]S(=O)(=O)C(F)(F)F)C(F)(F)F yielded an activity coefficient (308.15 K) of 1.45 ± 0.1, an activity coefficient (318.15 K) of 1.32 ± 0.09 and an activity coefficient (328.15 K) of 1.21 ± 0.08. The activity coefficient (338.15 K) was 1.12 ± 0.07, the activity coefficient (348.15 K) was 1.07 ± 0.07 and the activity coefficient (358.15 K) was 1 ± 0.06.
For C1CCCCCC1 [cycloheptane] + CCCCC[N+]1(C)CCCCC1.O=S(=O)([N-]S(=O)(=O)C(F)(F)F)C(F)(F)F, the activity coefficient (308.15 K) was 7.97 ± 0.54, the activity coefficient (318.15 K) was 7.49 ± 0.51 and the activity coefficient (328.15 K) was 7.13 ± 0.49. For the same compound, the activity coefficient (338.15 K) was 6.82 ± 0.46, the activity coefficient (348.15 K) was 6.54 ± 0.45 and the activity coefficient (358.15 K) was 6.26 ± 0.43.
Compound CCCCCCC [heptane] + CCCCC[N+]1(C)CCCCC1.O=S(=O)([N-]S(=O)(=O)C(F)(F)F)C(F)(F)F has an activity coefficient (308.15 K) of 13.6 ± 0.9, an activity coefficient (318.15 K) of 12.4 ± 0.8 and an activity coefficient (328.15 K) of 11.8 ± 0.8. For the same compound, the activity coefficient (338.15 K) was 11.3 ± 0.8, the activity coefficient (348.15 K) was 10.8 ± 0.7 and the activity coefficient (358.15 K) was 10.4 ± 0.7.
With CCCC(C)=O [pentan-2-one] + CCCCC[N+]1(C)CCCCC1.O=S(=O)([N-]S(=O)(=O)C(F)(F)F)C(F)(F)F the activity coefficient (318.15 K) was 0.611 ± 0.043, the activity coefficient (328.15 K) was 0.629 ± 0.043 and the activity coefficient (338.15 K) was 0.643 ± 0.044. The activity coefficient (348.15 K) was 0.666 ± 0.045 and the activity coefficient (358.15 K) was 0.682 ± 0.046.
Compound CCC(C)(C)OC [2-methoxy-2-methylbutane] + CCCCC[N+]1(C)CCCCC1.O=S(=O)([N-]S(=O)(=O)C(F)(F)F)C(F)(F)F has an activity coefficient (308.15 K) of 2.44 ± 0.17, an activity coefficient (318.15 K) of 2.47 ± 0.17 and an activity coefficient (328.15 K) of 2.5 ± 0.17. The activity coefficient (338.15 K) was 2.53 ± 0.17, the activity coefficient (348.15 K) was 2.57 ± 0.17 and the activity coefficient (358.15 K) was 2.6 ± 0.18.
Compound CCCO [propan-1-ol] + CCCCCC[N+]1(C)CCCCC1.O=S(=O)([N-]S(=O)(=O)C(F)(F)F)C(F)(F)F has an activity coefficient (308.15 K) of 2.05 ± 0.14, an activity coefficient (318.15 K) of 1.83 ± 0.12 and an activity coefficient (328.15 K) of 1.67 ± 0.11. For the same compound, the activity coefficient (338.15 K) was 1.53 ± 0.1, the activity coefficient (348.15 K) was 1.43 ± 0.09 and the activity coefficient (358.15 K) was 1.33 ± 0.09.
Compound CCO [ethanol] + CCCCC[N+]1(C)CCCCC1.O=S(=O)([N-]S(=O)(=O)C(F)(F)F)C(F)(F)F has an activity coefficient (308.15 K) of 1.79 ± 0.12, an activity coefficient (318.15 K) of 1.58 ± 0.1 and an activity coefficient (328.15 K) of 1.46 ± 0.1. It also gave an activity coefficient (338.15 K) of 1.35 ± 0.09, an activity coefficient (348.15 K) of 1.27 ± 0.08 and an activity coefficient (358.15 K) of 1.18 ± 0.08.
For Cc1cccc(C)c1 [1,3-dimethylbenzene] + CCCCC[N+]1(C)CCCCC1.O=S(=O)([N-]S(=O)(=O)C(F)(F)F)C(F)(F)F, the activity coefficient (308.15 K) was 1.15 ± 0.07, the activity coefficient (318.15 K) was 1.24 ± 0.08 and the activity coefficient (328.15 K) was 1.28 ± 0.08. It also gave an activity coefficient (338.15 K) of 1.31 ± 0.09, an activity coefficient (348.15 K) of 1.36 ± 0.09 and an activity coefficient (358.15 K) of 1.39 ± 0.09.
Compound CCCOCCC [dipropyl ether] + CCCCC[N+]1(C)CCCCC1.O=S(=O)([N-]S(=O)(=O)C(F)(F)F)C(F)(F)F has an activity coefficient (308.15 K) of 4.17 ± 0.28, an activity coefficient (318.15 K) of 4.13 ± 0.28 and an activity coefficient (328.15 K) of 4.05 ± 0.28. It also gave an activity coefficient (338.15 K) of 4.02 ± 0.27, an activity coefficient (348.15 K) of 3.98 ± 0.27 and an activity coefficient (358.15 K) of 3.96 ± 0.27.
Work on CCCCCCCCCC [decane] + CCCCC[N+]1(C)CCCCC1.O=S(=O)([N-]S(=O)(=O)C(F)(F)F)C(F)(F)F yielded an activity coefficient (308.15 K) of 31.9 ± 2.2, an activity coefficient (318.15 K) of 29.5 ± 2 and an activity coefficient (328.15 K) of 27.9 ± 1.9. For the same compound, the activity coefficient (338.15 K) was 26.2 ± 1.8, the activity coefficient (348.15 K) was 25.1 ± 1.7 and the activity coefficient (358.15 K) was 23.8 ± 1.6.
In the case of C#CCCC [1-pentyne] + CCCCC[N+]1(C)CCCCC1.O=S(=O)([N-]S(=O)(=O)C(F)(F)F)C(F)(F)F, the activity coefficient (308.15 K) is reported as 1.54 ± 0.1, the activity coefficient (318.15 K) is reported as 1.59 ± 0.11 and the activity coefficient (328.15 K) is reported as 1.62 ± 0.11. The activity coefficient (338.15 K) was 1.64 ± 0.11, the activity coefficient (348.15 K) was 1.69 ± 0.11 and the activity coefficient (358.15 K) was 1.73 ± 0.12.
Compound C1CCCCC1 [cyclohexane] + CCCCCC[N+]1(C)CCCCC1.O=S(=O)([N-]S(=O)(=O)C(F)(F)F)C(F)(F)F has an activity coefficient (308.15 K) of 4.99 ± 0.34, an activity coefficient (318.15 K) of 4.8 ± 0.33 and an activity coefficient (328.15 K) of 4.6 ± 0.31. The activity coefficient (338.15 K) was 4.43 ± 0.3, the activity coefficient (348.15 K) was 4.28 ± 0.29 and the activity coefficient (358.15 K) was 4.06 ± 0.28.
In the case of CC1CCCCC1 [methylcyclohexane] + CCCCCC[N+]1(C)CCCCC1.O=S(=O)([N-]S(=O)(=O)C(F)(F)F)C(F)(F)F, the activity coefficient (308.15 K) is reported as 6.24 ± 0.43, the activity coefficient (318.15 K) is reported as 6.05 ± 0.41 and the activity coefficient (328.15 K) is reported as 5.83 ± 0.4. For the same compound, the activity coefficient (338.15 K) was 5.59 ± 0.38, the activity coefficient (348.15 K) was 5.4 ± 0.37 and the activity coefficient (358.15 K) was 5.2 ± 0.35.
CCC(C)(C)C [2,2-dimethylbutane] + CCCCC[N+]1(C)CCCCC1.O=S(=O)([N-]S(=O)(=O)C(F)(F)F)C(F)(F)F gave an activity coefficient (318.15 K) of 7.94 ± 0.54, an activity coefficient (328.15 K) of 7.7 ± 0.53 and an activity coefficient (338.15 K) of 7.34 ± 0.5. It also gave an activity coefficient (348.15 K) of 7.04 ± 0.48 and an activity coefficient (358.15 K) of 6.86 ± 0.47.
C#CCCCCCC [1-octyne] + CCCCCC[N+]1(C)CCCCC1.O=S(=O)([N-]S(=O)(=O)C(F)(F)F)C(F)(F)F gave an activity coefficient (308.15 K) of 3.1 ± 0.21, an activity coefficient (318.15 K) of 3.14 ± 0.21 and an activity coefficient (328.15 K) of 3.19 ± 0.22. For the same compound, the activity coefficient (338.15 K) was 3.21 ± 0.22, the activity coefficient (348.15 K) was 3.24 ± 0.22 and the activity coefficient (358.15 K) was 3.26 ± 0.22.
Compound CCCCCCC [heptane] + CCCCCC[N+]1(C)CCCCC1.O=S(=O)([N-]S(=O)(=O)C(F)(F)F)C(F)(F)F has an activity coefficient (308.15 K) of 10.2 ± 0.7, an activity coefficient (318.15 K) of 9.81 ± 0.67 and an activity coefficient (328.15 K) of 9.38 ± 0.64. It also gave an activity coefficient (338.15 K) of 8.99 ± 0.61, an activity coefficient (348.15 K) of 8.68 ± 0.59 and an activity coefficient (358.15 K) of 8.2 ± 0.56.
Compound c1ccccc1 [benzene] + CCCCCC[N+]1(C)CCCCC1.O=S(=O)([N-]S(=O)(=O)C(F)(F)F)C(F)(F)F has an activity coefficient (308.15 K) of 0.669 ± 0.045, an activity coefficient (318.15 K) of 0.687 ± 0.046 and an activity coefficient (328.15 K) of 0.695 ± 0.047. It also gave an activity coefficient (338.15 K) of 0.71 ± 0.047, an activity coefficient (348.15 K) of 0.722 ± 0.048 and an activity coefficient (358.15 K) of 0.73 ± 0.048.
CCCCCCCC [octane] + CCCCCC[N+]1(C)CCCCC1.O=S(=O)([N-]S(=O)(=O)C(F)(F)F)C(F)(F)F showed an activity coefficient (308.15 K) of 12.9 ± 0.9, an activity coefficient (318.15 K) of 12.7 ± 0.9 and an activity coefficient (328.15 K) of 12.1 ± 0.8. It also gave an activity coefficient (338.15 K) of 11.8 ± 0.8, an activity coefficient (348.15 K) of 11.3 ± 0.8 and an activity coefficient (358.15 K) of 10.9 ± 0.7.
